Test system: microbial growth (mold)
Assay: 6-month storage test of flour tortillas, visual signs of microbial growth
Details: flour tortillas with sodium propionate and potassium sorbate, acidulate 0.2832 weight %, stored at about 77° F., end of 6-month period
Protocol: The ingredients listed in Table 1 were combined at 100° F. The water and flour mixture was mixed for 2 minutes at a low speed with a dough hook. The dough was allowed to stand for 5 minutes and then divided into 50-gram balls that were heat pressed at 175° F. for 10 seconds. The raw tortillas were then baked on a griddle at 400° F. for 30 seconds on each side, and subsequently cooled.
Tortillas from each test batch were evaluated after baking for volume, eating quality, and microbial growth. Thereafter, tortilla specimens from of each batch were heat sealed in cellophane bags, bagged in ZIPLOCK® freezer pouches and stored at about 77° F. All test batches of tortilla samples were checked periodically for visual signs of microbial growth, volume reduction, and overall appearance over a 6-month period.

## O=C(O)/C=C/C(=O)O [raw fumaric acid, fumaric acid]
  visual signs of microbial growth / mold on tortillas: visual signs of microbial growth, albeit to a lesser extent than the control tortillas

Reference: patent US8202563B2, “Acidulate composition and methods for making and utilizing the same” (Clabber Girl Corporation, priority 2008, dated 2012)
